The nature of data set [1]: H+/Na+ transport assay of bead-derived peptides (one-point).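 Also: relative to parent gramicidin A activity set to 1.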 Format: biochemical. On the set-up: key: relative activity; mean of two control wells = 1.00. The note with it: bead-derived peptide solution, EYPC/EYPG LUVs. The essentials: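 Miniaturized 96-well format. LUVs with entrapped pyranine (1.0 mM) were exposed to peptide for 30 min at RT. Intensities were expressed relative to full lysis by Triton X-100 and no treatment, with control-well mean = 1.00.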

For data set [2] the following is noted: cell viability/%. The essentials: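 P388 cells at 1 × 10^4 cells/mL (final) were exposed to library peptides (stocks diluted 250-fold in RPMI1640/10% FBS) for 92 h at 37 °C, 5% CO2. Viable cells were counted by WST-1/1-methoxy PMS (4 h), absorbance 415 nm, and expressed as cell viability (%).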
Data set [3] has as its system Streptococcus pyogenes SSI-9. The data set can be described thus: Antibacterial activity assay of bead-derived peptides (three concentrations). It is filed as cell-based. On the set-up: key: +++: inhibition by the 640-fold diluted peptide solution; ++: inhibition by the 160-fold diluted solution; +: inhibition by the 40-fold diluted solution; -: no inhibition. The note with it: S. pyogenes, bead-derived peptide solution, three concentrations. The essentials:
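Undiluted, 4-fold and 16-fold DMSO-diluted peptide stocks; S. pyogenes SSI-9, 2 × 10^5 CFU, cation-adjusted MHB (50 mg/L Ca2+, 25 mg/L Mg2+) + 5% laked horse blood; 37 °C, 18 h; readout = cell pellet visible or not.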

The structures appear in SMILES notation. Where a SMILES comes first, the peptide text is derived from it. [ ]: non-standard residue; d: D form. The star is where a group is joined. NHCH2CH2OH = OCCN*; For = O=C*

For orientation: viability means a per cent measure of how many cells are alive, often set against a control. As for `CC(C)C[C@@H](NC(=O)[C@H](Cc1c[nH]c2ccccc12)NC(=O)[C@H](NC(=O)[C@H](Cc1c[nH]c2ccccc12)NC(=O)[C@@H](CC(C)C)NC(=O)[C@H](Cc1c[nH]c2ccccc12)NC(=O)[C@H](NC(=O)[C@@H](NC(=O)[C@H](NC(=O)[C@H](C)NC(=O)[C@H](NC(=O)[C@H](C)NC(=O)CNC(=O)[C@@H](NC=O)C(C)C)C(C)C)C(C)C)C(C)C)C(C)C)[C@H](C)O)C(=O)N[C@@H](Cc1c[nH]c2ccccc12)C(=O)NCCO` [compound 521] (For-VGA[dV]A[dV]V[dV]W[dL]W[dT]W[dL]W-NHCH2CH2OH), the “H+/Na+ transport activity normalized against the value of 1 (1.00)” value (shortened to “H+/Na+ transport activity normalized”) in data set [1] is 1.05. Besides, in data set [2], the viability was determined as 100%. For the same compound, the antibacterial activity entry in data set [3] is listed as “+”.
Regarding `CC(C)C[C@@H](NC(=O)[C@H](C)NC(=O)[C@H](NC(=O)[C@H](C)NC(=O)CNC(=O)[C@@H](NC=O)C(C)C)C(C)C)C(=O)N[C@H](C(=O)N[C@H](CC(C)C)C(=O)N[C@@H](Cc1c[nH]c2ccccc12)C(=O)N[C@H](CC(C)C)C(=O)N[C@@H](Cc1c[nH]c2ccccc12)C(=O)N[C@H](CC(C)C)C(=O)N[C@@H](Cc1c[nH]c2ccccc12)C(=O)N[C@H](CC(C)C)C(=O)N[C@@H](Cc1c[nH]c2ccccc12)C(=O)NCCO)C(C)C` [compound 527] (For-VGA[dV]A[dL]V[dL]W[dL]W[dL]W[dL]W-NHCH2CH2OH), the “H+/Na+ transport activity normalized” value in data set [1] was 1.16. The viability in data set [2] came out at 5.9%. Besides, in data set [3], the antibacterial activity entry is reported as “++”.
As to `CC(C)[C@H](NC=O)C(=O)NCC(=O)N[C@@H](C)C(=O)N[C@@H](C(=O)N[C@@H](C)C(=O)N[C@@H](C(=O)N[C@H](C(=O)N[C@@H](C(=O)N[C@@H](Cc1c[nH]c2ccccc12)C(=O)N[C@@H](C(=O)N[C@@H](Cc1c[nH]c2ccccc12)C(=O)N[C@@H](C(=O)N[C@@H](Cc1c[nH]c2ccccc12)C(=O)N[C@@H](C(=O)N[C@@H](Cc1c[nH]c2ccccc12)C(=O)NCCO)C(C)C)C(C)C)[C@H](C)O)C(C)C)C(C)C)C(C)C)C(C)C` [compound 532] (For-VGA[dV]A[dV]V[dV]W[dT]W[dV]W[dV]W-NHCH2CH2OH), the “H+/Na+ transport activity normalized” value in data set [1] came to 1.03. Also, the viability in data set [2] was 100%. For the same compound, in data set [3], the antibacterial activity result is listed as “-”.
Take `CNC(=O)C[C@@H](NC(=O)[C@@H](NC(=O)[C@@H](CC(C)C)NC(=O)[C@H](C)NC(=O)[C@H](NC(=O)[C@H](C)NC(=O)CNC(=O)[C@@H](NC=O)C(C)C)C(C)C)C(C)C)C(=O)N[C@@H](Cc1c[nH]c2ccccc12)C(=O)N[C@@H](C(=O)N[C@@H](Cc1c[nH]c2ccccc12)C(=O)N[C@H](CC(C)C)C(=O)N[C@@H](Cc1c[nH]c2ccccc12)C(=O)N[C@H](CC(C)C)C(=O)N[C@@H](Cc1c[nH]c2ccccc12)C(=O)NCCO)C(C)C` [compound 603] (For-VGA[dV]A[dL]V[dD](NHMe)W[dV]W[dL]W[dL]W-NHCH2CH2OH): in data set [1], the “H+/Na+ transport activity normalized” value was found to be 1.10. Further, the viability in data set [2] is 100%. Also, the antibacterial activity result in data set [3] is on record as “-”.
In the case of `CC(C)C[C@@H](NC(=O)[C@H](C)NC(=O)CNC(=O)[C@@H](NC=O)C(C)C)C(=O)N[C@@H](C)C(=O)N[C@@H](C(=O)N[C@H](C(=O)N[C@H](CC(C)C)C(=O)N[C@@H](Cc1c[nH]c2ccccc12)C(=O)N[C@@H](C(=O)N[C@@H](Cc1c[nH]c2ccccc12)C(=O)N[C@H](CC(C)C)C(=O)N[C@@H](Cc1c[nH]c2ccccc12)C(=O)N[C@H](CC(C)C)C(=O)N[C@@H](Cc1c[nH]c2ccccc12)C(=O)NCCO)C(C)C)C(C)C)[C@H](C)O` [compound 611] (For-VGA[dL]A[dT]V[dL]W[dV]W[dL]W[dL]W-NHCH2CH2OH), the “H+/Na+ transport activity normalized” value in data set [1] was determined as 1.05. Further, in data set [2], the viability is 100%. Also, the antibacterial activity result in data set [3] is listed as “-”.
On to `CC(C)C[C@@H](NC(=O)[C@H](Cc1c[nH]c2ccccc12)NC(=O)[C@H](NC(=O)[C@@H](NC(=O)[C@H](NC(=O)[C@H](C)NC(=O)[C@H](NC(=O)[C@H](C)NC(=O)CNC(=O)[C@@H](NC=O)C(C)C)[C@H](C)O)C(C)C)C(C)C)C(C)C)C(=O)N[C@@H](Cc1c[nH]c2ccccc12)C(=O)N[C@@H](C(=O)N[C@@H](Cc1c[nH]c2ccccc12)C(=O)N[C@@H](C(=O)N[C@@H](Cc1c[nH]c2ccccc12)C(=O)NCCO)C(C)C)C(C)C` [compound 629] (For-VGA[dT]A[dV]V[dV]W[dL]W[dV]W[dV]W-NHCH2CH2OH), for which, in data set [1], the “H+/Na+ transport activity normalized” value was 1.12. This compound came in with a viability in data set [2] of 100%. In addition, in data set [3], the antibacterial activity entry was “-”.
As to `CC(C)C[C@@H](NC(=O)[C@H](C)NC(=O)CNC(=O)[C@@H](NC=O)C(C)C)C(=O)N[C@@H](C)C(=O)N[C@@H](C(=O)N[C@H](C(=O)N[C@@H](C(=O)N[C@@H](Cc1c[nH]c2ccccc12)C(=O)N[C@@H](C(=O)N[C@@H](Cc1c[nH]c2ccccc12)C(=O)N[C@@H](C(=O)N[C@@H](Cc1c[nH]c2ccccc12)C(=O)N[C@@H](C(=O)N[C@@H](Cc1c[nH]c2ccccc12)C(=O)NCCO)C(C)C)C(C)C)C(C)C)C(C)C)C(C)C)C(C)C` [compound 725] (For-VGA[dL]A[dV]V[dV]W[dV]W[dV]W[dV]W-NHCH2CH2OH), in data set [1], the “H+/Na+ transport activity normalized” value is given as 1.10. The viability in data set [2] came out at 100%. Moreover, the antibacterial activity result in data set [3] is given as “+”.
With `CC(C)C[C@@H](NC(=O)[C@H](C)NC(=O)CNC(=O)[C@@H](NC=O)C(C)C)C(=O)N[C@@H](C)C(=O)N[C@@H](C(=O)N[C@H](C(=O)N[C@@H](C(=O)N[C@@H](Cc1c[nH]c2ccccc12)C(=O)N[C@@H](C(=O)N[C@@H](Cc1c[nH]c2ccccc12)C(=O)N[C@@H](C(=O)N[C@@H](Cc1c[nH]c2ccccc12)C(=O)N[C@@H](C(=O)N[C@@H](Cc1c[nH]c2ccccc12)C(=O)NCCO)[C@H](C)O)C(C)C)C(C)C)C(C)C)C(C)C)C(C)C` [compound 762] (For-VGA[dL]A[dV]V[dV]W[dV]W[dV]W[dT]W-NHCH2CH2OH), in data set [1], the “H+/Na+ transport activity normalized” value turned out to be 1.01. Further, in data set [2], the viability is 96.8%. Also, in data set [3], the antibacterial activity result is listed as “-”.
Turning to `CC(C)C[C@@H](NC(=O)[C@H](C)NC(=O)CNC(=O)[C@@H](NC=O)C(C)C)C(=O)N[C@@H](C)C(=O)N[C@H](CC(C)C)C(=O)N[C@H](C(=O)N[C@H](CC(C)C)C(=O)N[C@@H](Cc1c[nH]c2ccccc12)C(=O)N[C@@H](C(=O)N[C@@H](Cc1c[nH]c2ccccc12)C(=O)N[C@H](CC(C)C)C(=O)N[C@@H](Cc1c[nH]c2ccccc12)C(=O)N[C@@H](C(=O)N[C@@H](Cc1c[nH]c2ccccc12)C(=O)NCCO)[C@H](C)O)C(C)C)C(C)C` [compound 770] (For-VGA[dL]A[dL]V[dL]W[dV]W[dL]W[dT]W-NHCH2CH2OH), in data set [1], the “H+/Na+ transport activity normalized” value was determined as 1.11. Besides, the viability in data set [2] was found to be 100%. The antibacterial activity entry in data set [3] is on record as “-”.
`CC(C)C[C@@H](NC(=O)[C@H](C)NC(=O)[C@H](NC(=O)[C@H](C)NC(=O)CNC(=O)[C@@H](NC=O)C(C)C)[C@H](C)O)C(=O)N[C@H](C(=O)N[C@H](CC(C)C)C(=O)N[C@@H](Cc1c[nH]c2ccccc12)C(=O)N[C@H](CC(C)C)C(=O)N[C@@H](Cc1c[nH]c2ccccc12)C(=O)N[C@@H](C(=O)N[C@@H](Cc1c[nH]c2ccccc12)C(=O)N[C@H](CC(C)C)C(=O)N[C@@H](Cc1c[nH]c2ccccc12)C(=O)NCCO)C(C)C)C(C)C` [compound 789] (For-VGA[dT]A[dL]V[dL]W[dL]W[dV]W[dL]W-NHCH2CH2OH): the “H+/Na+ transport activity normalized” value in data set [1] turned out to be 1.08. This compound also registered a viability in data set [2] of 100%. The antibacterial activity entry in data set [3] is “-”.
Consider `CC(C)C[C@@H](NC(=O)[C@@H](NC(=O)[C@H](NC(=O)[C@H](C)NC(=O)[C@H](NC(=O)[C@H](C)NC(=O)CNC(=O)[C@@H](NC=O)C(C)C)C(C)C)C(C)C)C(C)C)C(=O)N[C@@H](Cc1c[nH]c2ccccc12)C(=O)N[C@@H](C(=O)N[C@@H](Cc1c[nH]c2ccccc12)C(=O)N[C@@H](C(=O)N[C@@H](Cc1c[nH]c2ccccc12)C(=O)N[C@@H](C(=O)N[C@@H](Cc1c[nH]c2ccccc12)C(=O)NCCO)C(C)C)C(C)C)C(C)C` [compound 885] (For-VGA[dV]A[dV]V[dL]W[dV]W[dV]W[dV]W-NHCH2CH2OH), for which the “H+/Na+ transport activity normalized” value in data set [1] turned out to be 1.03. In data set [2], this compound showed a viability of 93.4%. For the same compound, the antibacterial activity entry in data set [3] is listed as “-”.
As to `CNC(=O)C[C@@H](NC(=O)[C@@H](NC(=O)[C@H](NC(=O)[C@H](C)NC(=O)[C@H](NC(=O)[C@H](C)NC(=O)CNC(=O)[C@@H](NC=O)C(C)C)C(C)C)C(C)C)C(C)C)C(=O)N[C@@H](Cc1c[nH]c2ccccc12)C(=O)N[C@@H](C(=O)N[C@@H](Cc1c[nH]c2ccccc12)C(=O)N[C@H](CC(C)C)C(=O)N[C@@H](Cc1c[nH]c2ccccc12)C(=O)N[C@H](CC(C)C)C(=O)N[C@@H](Cc1c[nH]c2ccccc12)C(=O)NCCO)C(C)C` [compound 903] (For-VGA[dV]A[dV]V[dD](NHMe)W[dV]W[dL]W[dL]W-NHCH2CH2OH), the “H+/Na+ transport activity normalized” value in data set [1] came to 1.15. This compound also showed a viability in data set [2] of 89.7%. The antibacterial activity result in data set [3] was “-”.

These data come from article PMC7531004, “Discovery of gramicidin A analogues with altered activities by multidimensional screening of a one-bead-one-compound library” (Nature Communications, 2020).
